According to PMC6642134, “Dopey1-Mon2 complex binds to dual-lipids and recruits kinesin-1 for membrane trafficking” (Nature Communications, 2019):

Assays:
[1] = target: T1, GST-DEC (Dopey1 extreme C-terminal region) (Homo sapiens, UniProt B2RWN9); assay: liposome pull-down with diluted protein, Western blot; assay type: binding; details: read-out: apparent affinity
T1 construct: DEC domain, residues 2146-2456, N-terminal GST fusion kept, E. coli BL21 DE3, detergent-free; dimeric through GST
T1 sequence (B2RWN9 2146-2456): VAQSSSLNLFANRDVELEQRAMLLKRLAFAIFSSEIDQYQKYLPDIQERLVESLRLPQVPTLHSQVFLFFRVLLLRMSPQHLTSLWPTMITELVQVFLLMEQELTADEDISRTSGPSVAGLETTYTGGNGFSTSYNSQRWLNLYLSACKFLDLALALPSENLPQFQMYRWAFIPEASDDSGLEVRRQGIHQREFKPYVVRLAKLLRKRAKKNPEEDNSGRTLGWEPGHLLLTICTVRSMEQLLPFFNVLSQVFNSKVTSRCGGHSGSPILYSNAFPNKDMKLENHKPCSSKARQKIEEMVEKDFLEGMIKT

[2] = target: the molecule itself; assay: single-molecule photo-bleaching steps (TIRF microscopy); GFP-fusion protein in HEK293T lysate (20 mM Tris pH 7.4) immobilised on a glass coverslip; photo-bleaching steps counted; expressed alone

Molecule	Kd [1]	stoichiometry N [2]
PI4P	~1 µM	
Mon2, full length, transfected (natural protein, UniProt Q7Z3U7 1-1717, looked up, Mon2, full length; One molecule for the differently tagged copies (GFP-Mon2 and DMyc-Mon2 in the self co-IP); GFP-Mon2 in photo-bleaching; DMyc-Mon2 co-expressed with GFP-Dopey1; also called GFP-Mon2; DMyc-Mon2; source: HEK293T, transfected, in lysate; HeLa, transfected (imaging); not shown: GFP or DMyc or another fluorescence protein (by experiment), N-terminal, kept) MSGTSSPEAVKKLLENMQSDLRALSLECKKKFPPVKEAAESGIIKVKTIAARNTEILAALKENSSEVVQPFLMGCGTKEPKITQLCLAAIQRLMSHEVVSETAAGNIINMLWQLMENSLEELKLLQTVLVLLTTNTVVHDEALSKAIVLCFRLHFTKDNITNNTAAATVRQVVTVVFERMVAEDERHRDIIEQPVLVQGNSNRRSVSTLKPCAKDAYMLFQDLCQLVNADAPYWLVGMTEMTRTFGLELLESVLNDFPQVFLQHQEFSFLLKERVCPLVIKLFSPNIKFRQGSSTSSSPAPVEKPYFPICMRLLRVVSVLIKQFYSLLVTECEIFLSLLVKFLDADKPQWLRAVAVESIHRFCVQPQLLRSFCQSYDMKQHSTKVFRDIVNALGSFIQSLFLVPPTGNPATSNQAGNNNLGGSVSAPANSGMVGIGGGVTLLPAFEYRGTWIPILTITVQGSAKATYLEMLDKVEPPTIPEGYAMSVAFHCLLDLVRGITSMIEGELGELETECQTTTEEGSSPTQSTEQQDLQSTSDQMDKEIVSRAVWEEMVNACWCGLLAALSLLLDASTDEAATENILKAELTMAALCGRLGLVTSRDAFITAICKGSLPPHYALTVLNTTTAATLSNKSYSVQGQSVMMISPSSESHQQVVAVGQPLAVQPQGTVMLTSKNIQCMRTLLNLAHCHGAVLGTSWQLVLATLQHLVWILGLKPSSGGALKPGRAVEGPSTVLTTAVMTDLPVISNILSRLFESSQYLDDVSLHHLINALCSLSLEAMDMAYGNNKEPSLFAVAKLLETGLVNMHRIEILWRPLTGHLLEVCQHPNSRMREWGAEALTSLIKAGLTFNHDPPLSQNQRLQLLLLNPLKEMSNINHPDIRLKQLECVLQILQSQGDSLGPGWPLVLGVMGAIRNDQGESLIRTAFQCLQLVVTDFLPTMPCTCLQIVVDVAGSFGLHNQELNISLTSIGLLWNISDYFFQRGETIEKELNKEEAAQQKQAEEKGVVLNRPFHPAPPFDCLWLCLYAKLGELCVDPRPAVRKSAGQTLFSTIGAHGTLLQHSTWHTVIWKVLFHLLDRVRESSTTADKEKIESGGGNILIHHSRDTAEKQWAETWVLTLAGVARIFNTRRYLLQPLGDFSRAWDVLLDHIQSAALSKNNEVSLAALKSFQEILQIVSPVRDSDKPETPPVVNVPVPVLIGPISGMSRPFVRTDSIGEKLGRYSSSEPPIVTDELEDLNLWWAAWNTWYRIGSESTKPPITFDKLTFIPSQPFLTALIQIFPALYQHIKTGFNMDDLQKLGVILHSAISVPISSDASPFILPSYTEAVLTSLQEAVLTALDVLQKAICVGPENMQIMYPAIFDQLLAFVEFSCKPPQYGQLETKHIANAKYNQIQLFAPAEWVALNYVPFAERSLEVVVDLYQKTACHKAVVNEKVLQNIIKTLRVPLSLKYSCPSESTWKLAVSSLLRVLSIGLPVARQHASSGKFDSMWPELANTFEDFLFTKSIPPDNLSIQEFQRNENIDVEVVQLISNEILPYANFIPKEFVGQIMTMLNKGSIHSQSSSFTEAEIDIRLREEFSKMCFETLLQFSFSNKVTTPQEGYISRMALSVLLKRSQDVLHRYIEDERLSGKCPLPRQQVTEIIFVLKAVSTLIDSLKKTQPENVDGNTWAQVIALYPTLVECITCSSSEVCSALKEALVPFKDFMQPPASRVQNGES		2
